Reference: PubChem BioAssay (NCI)
Values joined by “and” are separate entries in the source; they are usually repeats but may differ in a detail not shown here. Equal entries are not always repeated.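 Dose response: 5 concentrations. Exposure: 48 h. Format: 96-well plates. Endpoint: linear interpolation; highest concentration if not reached. Here, GI50 denotes the concentration required for 50% inhibition of growth. TGI: total growth inhibition.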

Key:
Experiment in all cases: NCI tumour cell line growth inhibition, 48 h
[1] = system: A549 NSCLC
[2] = system: CAKI-1 renal
[3] = system: HCT-116 colon
[4] = system: HCT-15 colon
[5] = system: HOP-62 NSCLC
[6] = system: HOP-92 NSCLC
[7] = system: HT29 colon
[8] = system: IGROV1 ovarian
[9] = system: KM12 colon
[10] = system: M14 melanoma
[11] = system: MALME-3M melanoma
[12] = system: MDA-N
[13] = system: NCI-H23 lung
[14] = system: NCI/ADR-RES ovarian
[15] = system: PC-3 prostate
[16] = system: SNB-19 CNS
[17] = system: U251 CNS
[18] = system: UO-31 renal
[19] = system: 786-0 renal
[20] = system: A498 renal
[21] = system: ACHN renal
[22] = system: BT-549 breast
[23] = system: COLO 205 colon
[24] = system: DU-145 prostate
[25] = system: EKVX NSCLC
[26] = system: HL-60(TB) leukemia
[27] = system: HS 578T breast
[28] = system: K-562 leukemia
[29] = system: LOX IMVI melanoma
[30] = system: MCF7 breast
[31] = system: MDA-MB-231 breast
[32] = system: MDA-MB-435
[33] = system: MOLT-4 leukemia
[34] = system: NCI-H226 lung
[35] = system: NCI-H522 lung
[36] = system: OVCAR-3 ovarian
[37] = system: OVCAR-4 ovarian
[38] = system: OVCAR-5 ovarian
[39] = system: OVCAR-8 ovarian
[40] = system: RPMI-8226 leukemia
[41] = system: RXF 393 renal
[42] = system: SF-268 CNS
[43] = system: SF-295 CNS
[44] = system: SF-539 CNS
[45] = system: SK-MEL-2 melanoma
[46] = system: SK-MEL-28 melanoma
[47] = system: SK-MEL-5 melanoma
[48] = system: SK-OV-3 ovarian
[49] = system: SN12C renal
[50] = system: SNB-75 CNS
[51] = system: SR leukemia
[52] = system: SW-620 colon
[53] = system: UACC-62 melanoma
[54] = system: CCRF-CEM leukemia
[55] = system: HCC-2998 colon
[56] = system: NCI-H460 lung
[57] = system: T-47D breast
[58] = system: TK-10 renal
[59] = system: UACC-257 melanoma

Compound `CC[C@H]1C=CCC[C@@]2(C[C@@H]3CC[C@@H]4[C@H](C(=O)OCCCCCCCCCCCCCCCC(=O)N(CCCN)CCCCN)[C@]5(CCC[C@@H](C)O5)NC(=[N+]34)N2)O1` has a TGI [1] of 1420 nM, a TGI [2] of 1590 nM and a TGI [3] of 1410 nM. The TGI [4] was 1400 nM, the TGI [5] was 106 nM and the TGI [6] was 197 nM. The TGI [7] was 1320 nM, the TGI [8] was 2280 nM and the TGI [9] was 1200 nM. For the same compound, the TGI [10] was 18.7 nM, the TGI [11] was 119 nM and the TGI [12] was 1830 nM. It also gave a TGI [13] of 1070 nM, a TGI [14] of 2700 nM and a TGI [15] of 1460 nM. It also gave a TGI [16] of 1990 nM, a TGI [17] of 1540 nM and a TGI [18] of 334 nM.

For `Clc1ccccc1NN(Cc1ccncc1)c1ccccc1Cl`, the TGI [19] was 26600 nM, the TGI [20] was 33700 nM and the TGI [1] was 29800 nM. For the same compound, the TGI [21] was 35600 nM, the TGI [22] was 33700 nM and the TGI [23] was 32000 nM. The TGI [24] was 34800 nM, the TGI [25] was 30100 nM and the TGI [3] was 25700 nM. It also gave a TGI [4] of 34300 nM, a TGI [26] of 37000 nM and a TGI [5] of 29200 nM. For the same compound, the TGI [6] was 18200 nM, the TGI [27] was 48600 nM and the TGI [7] was 26100 nM. It also gave a TGI [8] of 27700 nM, a TGI [28] of 30200 nM and a TGI [9] of 36000 nM. It also gave a TGI [29] of 30300 nM, a TGI [10] of 35700 nM and a TGI [11] of 35900 nM. For the same compound, the TGI [30] was 53500 nM, the TGI [31] was 27800 nM and the TGI [32] was 29700 nM. It also gave a TGI [12] of 27800 nM, a TGI [33] of 33900 nM and a TGI [34] of 39300 nM. For the same compound, the TGI [13] was 29200 nM, the TGI [35] was 29600 nM and the TGI [14] was 32000 nM. The TGI [36] was 26300 nM, the TGI [37] was 25200 nM and the TGI [38] was 38400 nM. It also gave a TGI [39] of 29300 nM, a TGI [15] of 28900 nM and a TGI [40] of 42200 nM. The TGI [41] was 31800 nM, the TGI [42] was 36200 nM and the TGI [43] was 31600 nM. For the same compound, the TGI [44] was 36000 nM, the TGI [45] was 28600 nM and the TGI [46] was 40700 nM. It also gave a TGI [47] of 27600 nM, a TGI [48] of 44900 nM and a TGI [49] of 26500 nM. It also gave a TGI [16] of 37000 nM, a TGI [50] of 32100 nM and a TGI [51] of 32200 nM. The TGI [52] was 35100 nM, the TGI [17] was 26400 nM and the TGI [53] was 30700 nM. It also gave a TGI [18] of 63300 nM.

For `C=CCn1c(=O)c2cnc(Nc3ccc(N4CCN(C)CC4)cc3)nc2n1-c1cccc(C(C)(C)O)n1`, the GI50 [19] was 377 nM and 362 nM, the TGI [19] was 9710 nM and > 10000 nM and the GI50 [20] was 31.9 nM and 57.2 nM. For the same compound, the TGI [20] was 364 nM and 448 nM, the GI50 [1] was 1140 nM and 1470 nM and the TGI [1] was 11400 nM and > 10000 nM. The GI50 [21] was 75 nM and 226 nM, the TGI [21] was over 100000 nM and the GI50 [22] was 437 nM and 383 nM. The TGI [22] was 6010 nM and > 6270 nM, the GI50 [2] was 240 nM and 152 nM and the TGI [2] was 16700 nM and > 10000 nM. For the same compound, the GI50 [54] was 271 nM and 294 nM, the GI50 [23] was 311 nM and 623 nM and the TGI [23] was 2410 nM and > 6700 nM. The GI50 [24] was 872 nM and 678 nM, the TGI [24] was 18000 nM and > 10000 nM and the GI50 [25] was 970 nM and 1360 nM. The TGI [25] was 30100 nM and > 10000 nM, the GI50 [55] was 388 nM and 1130 nM and the TGI [55] was 7260 nM and > 7720 nM. For the same compound, the GI50 [3] was 321 nM and 328 nM, the TGI [3] was 11400 nM and > 10000 nM and the GI50 [4] was 682 nM and 601 nM. For the same compound, the TGI [4] was over 67100 nM, the GI50 [26] was 272 nM and 325 nM and the TGI [26] was 1350 nM and > 3110 nM. The GI50 [5] was 1400 nM and 802 nM, the TGI [5] was 14400 nM and > 10000 nM and the GI50 [6] was 131 nM and 221 nM. For the same compound, the TGI [6] was 3920 nM and 2380 nM, the GI50 [27] was 894 nM and 471 nM and the TGI [27] was over 60000 nM. For the same compound, the GI50 [7] was 207 nM and 286 nM, the TGI [7] was 643 nM and > 3820 nM and the GI50 [8] was 184 nM and 225 nM. For the same compound, the TGI [8] was 15500 nM and > 5260 nM, the GI50 [28] was 315 nM and 282 nM and the TGI [28] was 17800 nM and > 7640 nM. The GI50 [9] was 293 nM and 364 nM, the TGI [9] was 1530 nM and 3070 nM and the GI50 [29] was 433 nM and 537 nM. For the same compound, the TGI [29] was 6060 nM and > 7930 nM, the GI50 [10] was 191 nM and 213 nM and the TGI [10] was 11200 nM and > 5860 nM. The GI50 [11] was 1730 nM and 593 nM, the TGI [11] was 18400 nM and > 10000 nM and the GI50 [30] was 323 nM. The TGI [30] was 21400 nM and > 10000 nM, the GI50 [31] was 1330 nM and 624 nM and the TGI [31] was 27400 nM and > 7830 nM. The GI50 [32] was 201 nM and 247 nM, the TGI [32] was 561 nM and 666 nM and the GI50 [33] was 348 nM and 333 nM. The TGI [33] was 18100 nM and 4260 nM, the GI50 [34] was 456 nM and 1900 nM and the TGI [34] was 5950 nM and > 7680 nM. The GI50 [13] was 218 nM and 295 nM, the TGI [13] was 1270 nM and > 4860 nM and the GI50 [56] was 1560 nM and 996 nM. The TGI [56] was 14100 nM and > 10000 nM, the GI50 [35] was 176 nM and 293 nM and the TGI [35] was 645 nM and 2080 nM. For the same compound, the GI50 [14] was 2190 nM and 2730 nM, the TGI [14] was 18600 nM and > 10000 nM and the GI50 [36] was 241 nM and 331 nM. For the same compound, the TGI [36] was 900 nM and 1470 nM, the GI50 [37] was 373 nM and 507 nM and the TGI [37] was 28700 nM and > 10000 nM. For the same compound, the GI50 [38] was 557 nM and 1050 nM, the TGI [38] was over 100000 nM and the GI50 [39] was 417 nM and 526 nM. For the same compound, the TGI [39] was 2910 nM and > 7790 nM, the GI50 [15] was 1410 nM and 1060 nM and the TGI [15] was over 65600 nM. For the same compound, the GI50 [40] was 1650 nM and 1520 nM, the TGI [40] was 5610 nM and 6220 nM and the GI50 [41] was 85.5 nM and 232 nM. The TGI [41] was 531 nM and 1140 nM, the GI50 [42] was 1490 nM and 1690 nM and the TGI [42] was 51900 nM and > 10000 nM. For the same compound, the GI50 [43] was 480 nM and 589 nM, the TGI [43] was 14400 nM and > 10000 nM and the GI50 [44] was 161 nM and 287 nM. The TGI [44] was 2300 nM and 1150 nM, the GI50 [45] was 118 nM and 266 nM and the TGI [45] was 956 nM and 2990 nM. The GI50 [46] was 4610 nM and 4370 nM, the TGI [46] was 20600 nM and > 10000 nM and the GI50 [47] was 231 nM and 442 nM. The TGI [47] was 1040 nM and 7760 nM, the GI50 [48] was 251 nM and 237 nM and the TGI [48] was 8080 nM and > 3110 nM. The GI50 [49] was 855 nM and 479 nM, the TGI [49] was over 100000 nM and the GI50 [16] was 1170 nM and 526 nM. For the same compound, the TGI [16] was over 100000 nM, the GI50 [50] was 1440 nM and 717 nM and the TGI [50] was 8680 nM and 6370 nM. For the same compound, the GI50 [51] was 269 nM and 253 nM, the TGI [51] was 1670 nM and 2070 nM and the GI50 [52] was 316 nM and 448 nM. The TGI [52] was 12300 nM and > 10000 nM, the GI50 [57] was 2520 nM and 644 nM and the TGI [57] was over 100000 nM. The GI50 [58] was 100 nM and 310 nM, the TGI [58] was 5940 nM and > 10000 nM and the GI50 [17] was 707 nM and 1180 nM. The TGI [17] was 19900 nM and > 10000 nM, the GI50 [59] was 675 nM and > 4690 nM and the TGI [59] was 18700 nM and > 10000 nM. The GI50 [53] was 1180 nM and 484 nM, the TGI [53] was 20500 nM and > 10000 nM and the GI50 [18] was 338 nM and 280 nM. For the same compound, the TGI [18] was 7470 nM and > 10000 nM.
